The test system of one assay is IGF-1R. The assay is described as follows: Biacore analysis of the IGF-1R-Fc mutant library: M13-C06 Fab binding to receptor-Fc captured on M13-C06 chip. The conditions noted are these: for Biacore Relative RUmax: M13-C06 Fab binding to mutant hIGF-1R-Fc captured on M13-C06 chip. Also noted: species or system human. From the text: Both mIGF-1R-Fc and hIGF-1R-Fc bind with high apparent affinity to the M13-C06, M14-C03, and M14-G11 sensorchip surfaces described above due to their highly multivalent nature induced by the incorporation of two separate homodimeric regions (IGF-1R and IgG1-Fc). To distinguish between the actual high affinity binding hIGF-1R-Fc to M13-C06 and the low affinity binding of mIGF-1R-Fc to M13-C06, the receptor-Fc fusions were captured on the M13-C06 sensorchip surface followed by an additional soluble M13-C06 Fab binding event. […] After, completion of the receptor-Fc loading step, flow rates were elevated to 5 μl/min. 10 nM, […], and 1 nM M13-C06 Fab concentrations were injected (50 μL) subsequent to the loading of each receptor-Fc construct. At the end of each sensorgram, the flow rate was elevated to 30 μl/min and the chip surface was regenerated by 2×10 μL injections of 0.1 M glycine, pH 2.

The test system of the next assay is IGF-1R-Fc. Description: Surface plasmon resonance analysis of the IGF-1R-Fc mutant library (46 mutants). It is filed as binding, human. The note with it: for C06 binding: M13-C06 Fab; for C06 binding / C03 binding / G11 binding / P1E2 binding / αIR3 binding: KD relative to WT hIGF-1R-Fc; for C03 binding: M14-C03 Fab; for G11 binding: M14-G11 Fab; for P1E2 binding: P1E2 antibody; for loss in affinity for M14-G11 Fab based on the measured KD: mutant versus wild-type; for αIR3 binding: αIR3 antibody. The procedure:
Surface plasmon resonance (SPR) experiments were performed on a Biacore 3000 instrument set to 25° C. Both mIGF-1R-Fc and hIGF-1R-Fc bind with high apparent affinity to research grade CM5 sensorchip surfaces containing immobilized M13-C06, M14-C03, and M14-G11. The antibody sensorchip surfaces were prepared by injecting each antibody (diluted 100 μg/mL in 10 mM Acetate, pH 4.0) over EDC/NHS-activated sensorchip surfaces according to the standard protocol of the manufacturer. The ability of mIGF-1R-Fc to bind the antibody surfaces was the result of high apparent avidity of the protein. Both hIGF-1R-Fc and mIGF-1R-Fc proteins oligomerize due to the incorporation of two separate homodimeric regions (IGF-1R and IgG1-Fc). To distinguish between actual high affinity antibody binding to hIGF-1R-Fc and low affinity antibody binding to mIGF-1R-Fc, the receptor-Fc fusions were captured on the M13-C06 and M14-G11 sensorchip surfaces followed by an additional injection of antibody (αIR3 and P1E2) or antibody Fab (M13-C06, M14-C03, and M14-G11). […] After, completion of the receptor-Fc loading step, flow rates were elevated to 5 μl/min. Solutions containing M13-C06 Fab or αIR3 antibody at 10 nM, 3 nM, or 1 nM or M14-C03 Fab, M14-G11 Fab, or P1E2 antibody at 30 nM, 10 nM, or 3 nM were injected (50 μL) subsequent to the loading of each receptor-Fc construct. Dissociation was measured for 7 minutes after the antibody injections were complete. Finally, the flow rate was elevated to 30 μL/min and the chip surfaces were regenerated by 2×10 μL injections of 0.1 M glycine, pH 2.
M13-C06, M14-C03, M14-G11, P1E2 and αIR3 were assayed for their ability to interact with each of the mutant IGF-1R-Fc fusion constructs using surface plasmon resonance (Biacore). To remove the uncertain concentrations of the IGF-1R-Fc fusion constructs as a variable in the assay, each mutant construct was captured on a research grade CM5 chip containing ˜10,000 RU immobilized […], M14-C03, and M14-G11 antibody. To enhance our ability to visualize attenuations in antibody binding to the captured mutant IGF-1R constructs, we utilized enzymatically derived M13-C06, M14-C03, and M14-G11 antigen binding fragments (Fabs).
On the technique in general: In SPR one partner is held on a chip, and binding of the other changes the refractive index at the surface.

“SD008: hIGF-1R-Fc mutant S257F (Table 20), S258F (Table 17)”: in the assay on IGF-1R, the “Biacore Relative RUmax” value came out at 1.5. Besides, in the assay with IGF-1R-Fc, the C06 binding result is “NE (No effect (NE): measured KD within 2.5-fold of WT hIGF-1R-Fc)”, the C03 binding entry is given as “NE (No effect (NE): measured KD within 2.5-fold of WT hIGF-1R-Fc)”, the G11 binding result is reported as “W (Weak (W): measured KD between 2.5-10-fold higher than WT)” and the P1E2 binding result is “W (Weak (W): measured KD between 2.5-10-fold higher than WT)”. Also, in the assay with IGF-1R-Fc, the “loss in affinity for M14-G11 Fab based on the measured KD” value is “approximately 3 fold” and the αIR3 binding result is given as “NE (No effect (NE): measured KD within 2.5-fold of WT hIGF-1R-Fc)”.

Regarding SD003: hIGF-1R-Fc mutant T188F, in the assay on IGF-1R, the “Biacore Relative RUmax” value was 1.0. In addition, in the assay on IGF-1R-Fc, the C06 binding entry is “NE (No effect (NE): measured KD within 2.5-fold of WT hIGF-1R-Fc)” and the G11 binding entry is listed as “NE (No effect (NE): measured KD within 2.5-fold of WT hIGF-1R-Fc)”.

Take SD018: hIGF-1R-Fc mutant E665A: the “Biacore Relative RUmax” value in the assay on IGF-1R was 1.7. In addition, in the assay with IGF-1R-Fc, the C06 binding entry is on record as “NE (No effect (NE): measured KD within 2.5-fold of WT hIGF-1R-Fc)”, the C03 binding result is “NE (No effect (NE): measured KD within 2.5-fold of WT hIGF-1R-Fc)” and the G11 binding entry is listed as “NE (No effect (NE): measured KD within 2.5-fold of WT hIGF-1R-Fc)”.

For the substance “SD015: hIGF-1R-Fc mutant H464E (Table 20), E464H”, the “binding activity toward M13-C06” value in the assay with IGF-1R (SPR and tr-FRET, both assays) is given as “virtually no binding activity”. Also, in the assay with IGF-1R-Fc, the “effect of mutation on M13-C06 and M14-C03 Fab binding” value is recorded as “complete ablation of the binding reaction”; the C06 binding entry is “S (Strong (S): binding to antibody was ablated by mutation)”; the C03 binding result is “S (Strong (S): binding to antibody was ablated by mutation)”; the G11 binding result is given as “NE (No effect (NE): measured KD within 2.5-fold of WT hIGF-1R-Fc)”.

For the substance SD011: hIGF-1R-Fc mutant G285S_S286T, the “Biacore Relative RUmax” value with IGF-1R was determined as 1.8. For the same substance, in the assay on IGF-1R-Fc, the C06 binding result is reported as “NE (No effect (NE): measured KD within 2.5-fold of WT hIGF-1R-Fc)”, the C03 binding result is on record as “NE (No effect (NE): measured KD within 2.5-fold of WT hIGF-1R-Fc)”, the G11 binding entry was “NE (No effect (NE): measured KD within 2.5-fold of WT hIGF-1R-Fc)” and the P1E2 binding result was “NE (No effect (NE): measured KD within 2.5-fold of WT hIGF-1R-Fc)”. Besides, the αIR3 binding entry in the assay with IGF-1R-Fc is “NE (No effect (NE): measured KD within 2.5-fold of WT hIGF-1R-Fc)”.

Turning to SD014: hIGF-1R-Fc mutant K412A_A413Q, the “Biacore Relative RUmax” value in the assay with IGF-1R amounted to 0.6. Further, in the assay on IGF-1R-Fc, the C06 binding result was “NE (No effect (NE): measured KD within 2.5-fold of WT hIGF-1R-Fc)”, the C03 binding result is listed as “NE (No effect (NE): measured KD within 2.5-fold of WT hIGF-1R-Fc)”, the G11 binding entry is given as “NE (No effect (NE): measured KD within 2.5-fold of WT hIGF-1R-Fc)” and the P1E2 binding result was “NE (No effect (NE): measured KD within 2.5-fold of WT hIGF-1R-Fc)”. Besides, the αIR3 binding entry in the assay on IGF-1R-Fc is listed as “NE (No effect (NE): measured KD within 2.5-fold of WT hIGF-1R-Fc)”.

In the case of SD004: hIGF-1R-Fc mutant S210H_A211Q, in the assay with IGF-1R, the “Biacore Relative RUmax” value was found to be 0.8. Also, in the assay on IGF-1R-Fc, the C06 binding result is “NE (No effect (NE): measured KD within 2.5-fold of WT hIGF-1R-Fc)”, the C03 binding entry is reported as “NE (No effect (NE): measured KD within 2.5-fold of WT hIGF-1R-Fc)” and the G11 binding entry was “NE (No effect (NE): measured KD within 2.5-fold of WT hIGF-1R-Fc)”.

With SD013: hIGF-1R-Fc mutant D405K, the “Biacore Relative RUmax” value in the assay with IGF-1R amounted to 0.7. Besides, in the assay on IGF-1R-Fc, the C06 binding entry was “NE (No effect (NE): measured KD within 2.5-fold of WT hIGF-1R-Fc)”, the C03 binding entry was “NE (No effect (NE): measured KD within 2.5-fold of WT hIGF-1R-Fc)” and the G11 binding result was “NE (No effect (NE): measured KD within 2.5-fold of WT hIGF-1R-Fc)”.

Turning to SD002: hIGF-1R-Fc mutant M156A, in the assay with IGF-1R, the “Biacore Relative RUmax” value was determined as 1.2. Also, in the assay on IGF-1R-Fc, the C06 binding result is recorded as “NE (No effect (NE): measured KD within 2.5-fold of WT hIGF-1R-Fc)” and the G11 binding entry is reported as “NE (No effect (NE): measured KD within 2.5-fold of WT hIGF-1R-Fc)”.

For the substance SD017: hIGF-1R-Fc mutant I650S, the “Biacore Relative RUmax” value in the assay on IGF-1R was 2.0. In addition, in the assay with IGF-1R-Fc, the C06 binding entry is “NE (No effect (NE): measured KD within 2.5-fold of WT hIGF-1R-Fc)”, the C03 binding entry is reported as “NE (No effect (NE): measured KD within 2.5-fold of WT hIGF-1R-Fc)” and the G11 binding entry is “NE (No effect (NE): measured KD within 2.5-fold of WT hIGF-1R-Fc)”.

As for SD006: hIGF-1R-Fc mutant A227K, the “Biacore Relative RUmax” value with IGF-1R is given as 1.7. For the same substance, in the assay with IGF-1R-Fc, the C06 binding result is “NE (No effect (NE): measured KD within 2.5-fold of WT hIGF-1R-Fc)”, the C03 binding result is reported as “NE (No effect (NE): measured KD within 2.5-fold of WT hIGF-1R-Fc)”, the G11 binding entry was “NE (No effect (NE): measured KD within 2.5-fold of WT hIGF-1R-Fc)” and the P1E2 binding entry is given as “NE (No effect (NE): measured KD within 2.5-fold of WT hIGF-1R-Fc)”. Further, the αIR3 binding entry in the assay on IGF-1R-Fc is reported as “NE (No effect (NE): measured KD within 2.5-fold of WT hIGF-1R-Fc)”.

As for SD016: hIGF-1R-Fc mutant D531Q_V532N, the “Biacore Relative RUmax” value with IGF-1R stood at 2.0. In the assay on IGF-1R-Fc, the C06 binding entry is reported as “NE (No effect (NE): measured KD within 2.5-fold of WT hIGF-1R-Fc)”, the C03 binding result is given as “NE (No effect (NE): measured KD within 2.5-fold of WT hIGF-1R-Fc)” and the G11 binding result is on record as “NE (No effect (NE): measured KD within 2.5-fold of WT hIGF-1R-Fc)”.

As to “SD019: hIGF-1R-Fc mutant E739W L741F (Table 20), A739W_I741F (Table 17)”, the “Biacore Relative RUmax” value in the assay on IGF-1R worked out at 1.9. Besides, in the assay on IGF-1R-Fc, the C06 binding entry is on record as “NE (No effect (NE): measured KD within 2.5-fold of WT hIGF-1R-Fc)”, the C03 binding entry is recorded as “NE (No effect (NE): measured KD within 2.5-fold of WT hIGF-1R-Fc)” and the G11 binding result is on record as “NE (No effect (NE): measured KD within 2.5-fold of WT hIGF-1R-Fc)”.

SD009: hIGF-1R-Fc mutant E264K: the “Biacore Relative RUmax” value in the assay with IGF-1R was 0.6. In addition, in the assay with IGF-1R-Fc, the C06 binding entry was “NE (No effect (NE): measured KD within 2.5-fold of WT hIGF-1R-Fc)”, the C03 binding entry is “NE (No effect (NE): measured KD within 2.5-fold of WT hIGF-1R-Fc)”, the G11 binding result is reported as “NE (No effect (NE): measured KD within 2.5-fold of WT hIGF-1R-Fc)” and the P1E2 binding entry is on record as “NE (No effect (NE): measured KD within 2.5-fold of WT hIGF-1R-Fc)”. Moreover, the αIR3 binding result with IGF-1R-Fc is “NE (No effect (NE): measured KD within 2.5-fold of WT hIGF-1R-Fc)”.

Turning to SD012: hIGF-1R-Fc mutant E303G, the “Biacore Relative RUmax” value in the assay with IGF-1R was determined as 0.3. In the assay on IGF-1R-Fc, the C06 binding result is “NE (No effect (NE): measured KD within 2.5-fold of WT hIGF-1R-Fc)”, the C03 binding entry is recorded as “NE (No effect (NE): measured KD within 2.5-fold of WT hIGF-1R-Fc)”, the G11 binding result was “W (Weak (W): measured KD between 2.5-10-fold higher than WT)” and the P1E2 binding entry was “W (Weak (W): measured KD between 2.5-10-fold higher than WT)”. Also, in the assay on IGF-1R-Fc, the “loss in affinity for M14-G11 Fab based on the measured KD” value is listed as “approximately 3 fold” and the αIR3 binding result was “W (Weak (W): measured KD between 2.5-10-fold higher than WT)”.
